US9145392B2, “Imidazole amines as modulators of kinase activity” (Merck Patent GmbH, priority 2011, dated 2015)

Tests used:
P70S6K (T412E mutant) = P70S6K (T412E mutant) (Homo sapiens (Human), UniProt P23443, T412E); assay: P70S6K enzyme assay; type: biochemical; conditions: read-out: IC50 p70S6K
In short: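 Read-out is the substrate/phosphopeptide ratio from mobility-shift electrophoresis on a LabChip 3000.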

His-AKT (Full Length) = His-AKT (Full Length) (Homo sapiens (Human), UniProt P31749); assay: AKT enzyme assay; type: biochemical; conditions: read-out: IC50 AKT
Sequence of His-AKT (Full Length) (P31749 whole entry): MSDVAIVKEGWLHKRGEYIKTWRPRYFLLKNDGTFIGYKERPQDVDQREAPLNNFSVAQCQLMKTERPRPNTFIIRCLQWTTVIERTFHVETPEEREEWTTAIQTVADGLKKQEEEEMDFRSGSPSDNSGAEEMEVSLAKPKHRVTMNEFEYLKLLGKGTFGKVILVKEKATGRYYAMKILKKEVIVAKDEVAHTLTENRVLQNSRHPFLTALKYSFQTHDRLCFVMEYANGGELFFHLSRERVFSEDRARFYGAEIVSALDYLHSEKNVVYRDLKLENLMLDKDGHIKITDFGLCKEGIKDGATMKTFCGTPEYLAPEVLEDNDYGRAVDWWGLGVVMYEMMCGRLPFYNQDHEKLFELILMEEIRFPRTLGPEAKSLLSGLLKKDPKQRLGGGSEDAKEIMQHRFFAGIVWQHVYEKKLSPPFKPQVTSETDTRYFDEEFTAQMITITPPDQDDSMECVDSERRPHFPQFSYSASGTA
Experimental: A TTP Mosquito liquid handling instrument is used to place 125n1 of the appropriate concentration of inhibitor in 100% DMSO (for a dose response curve calculation) into each well of a 384-well plate.
The reaction is incubated for 90 min at 25 C, and then stopped by the addition of 70 μl of Stop buffer (100 mM HEPES pH 7.5, 0.015% Brij-35, 10 mM EDTA (Sigma, E7889)).
The plate is read on a Caliper LC 3000 in an Off-Chip mobility shift assay format, using the following parameters for a 12-sipper chip: screening pressure −2.3 psi, upstream voltage −500, and downstream voltage −3000. These conditions cause unphosphorylated substrate and phosphorylated product peptide to resolve as separate peaks allowing direct measurement of percentage of conversion of substrate to product. The percent conversion can be plotted against concentration of inhibitor to produce a sigmoidal dose response curve, from which an IC50 can be calculated.

Sequence of P70S6K (T412E mutant) (P23443 whole entry T412E): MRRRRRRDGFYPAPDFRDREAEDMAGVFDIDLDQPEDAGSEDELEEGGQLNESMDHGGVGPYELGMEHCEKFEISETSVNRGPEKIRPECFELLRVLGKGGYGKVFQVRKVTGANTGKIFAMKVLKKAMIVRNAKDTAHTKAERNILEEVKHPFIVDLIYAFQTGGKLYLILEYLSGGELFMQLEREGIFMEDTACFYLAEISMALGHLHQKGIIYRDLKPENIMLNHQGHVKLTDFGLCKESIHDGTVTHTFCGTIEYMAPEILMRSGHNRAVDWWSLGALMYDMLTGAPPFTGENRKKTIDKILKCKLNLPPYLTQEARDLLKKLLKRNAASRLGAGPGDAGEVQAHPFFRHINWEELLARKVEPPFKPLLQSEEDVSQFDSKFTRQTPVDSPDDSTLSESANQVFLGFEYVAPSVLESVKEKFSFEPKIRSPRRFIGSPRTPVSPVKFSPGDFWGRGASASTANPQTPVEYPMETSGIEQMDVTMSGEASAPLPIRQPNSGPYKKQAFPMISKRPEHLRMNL

SMILES | IC50 (P70S6K (T412E mutant)) | IC50 (His-AKT (Full Length))
NC(=O)c1c(N)ncnc1N1CCC(c2nc(-c3ccc(OC(F)F)cc3)cn2CCN2CCC2)CC1 [Compound 81, 4-Amino-6-{4-[1-(2-azetidin-1-yl-ethyl)-4-(4-difluoromethoxy-phenyl)-1H-imidazol-2-yl]-piperidin-1-yl}-pyrimidine-5-carboxylic acid amide] | 98 nM | 15000 nM
CCc1c(N)ncnc1N1CCC(c2nc(-c3ccc(F)c(C(F)(F)F)c3)cn2CCN(C)C)CC1 [Compound 82, 6-(4-(1-(2-(Dimethylamino)ethyl)-4-(4-fluoro-3-(trifluoromethyl)phenyl)-1H-imidazol-2-yl)piperidin-1-yl)-5-ethylpyrimidin-4-amine] | 3.7 nM | 12 nM
CN(C)CCn1cc(-c2ccc(F)c(C(F)(F)F)c2)nc1C1CCN(c2ncnc(N)c2CCC2CC2)CC1 [Compound 83, 5-(2-Cyclopropylethyl)-6-(4-(1-(2-(dimethylamino)ethyl)-4-(4-fluoro-3-(trifluoromethyl)phenyl)-1H-imidazol-2-yl)piperidin-1-yl)pyrimidin-4-amine] | 20 nM | 190 nM
CCOCCc1c(N)ncnc1N1CCC(c2nc(-c3ccc(F)c(C(F)(F)F)c3)cn2CCN(C)C)CC1 [Compound 84, 6-(4-(1-(2-(Dimethylamino)ethyl)-4-(4-fluoro-3-(trifluoromethyl)phenyl)-1H-imidazol-2-yl)piperidin-1-yl)-5-(2-ethoxyethyl)pyrimidin-4-amine] | 5.2 nM | 340 nM
CN(C)CCn1cc(-c2ccc(F)c(C(F)(F)F)c2)nc1C1CCN(c2ncnc(N)c2/C=C/C2CC2)CC1 [Compound 85, (E)-5-(2-Cyclopropylvinyl)-6-(4-(1-(2-(dimethylamino)ethyl)-4-(4-fluoro-3-(trifluoromethyl)phenyl)-1H-imidazol-2-yl)piperidin-1-yl)pyrimidin-4-amine] | 12 nM | 43 nM
CCO/C=C/c1c(N)ncnc1N1CCC(c2nc(-c3ccc(F)c(C(F)(F)F)c3)cn2CCN(C)C)CC1 [Compound 86, (E)-6-(4-(1-(2-(Dimethylamino)ethyl)-4-(4-fluoro-3-(trifluoromethyl)phenyl)-1H-imidazol-2-yl)piperidin-1-yl)-5-(2-ethoxyvinyl)pyrimidin-4-amine] | 1.9 nM | 4 nM
CN(C)CCn1cc(-c2ccc(F)c(C(F)(F)F)c2)nc1C1CCN(c2ncnc(N)c2-c2ccc(C(C)(C)O)cc2)CC1 [Compound 87, 2-(4-(4-Amino-6-(4-(1-(2-(dimethylamino)ethyl)-4-(4-fluoro-3-(trifluoromethyl)phenyl)-1H-imidazol-2-yl)piperidin-1-yl)pyrimidin-5-yl)phenyl)propan-2-ol] | 9.3 nM | 190 nM
COC(=O)c1ccc(-c2c(N)ncnc2N2CCC(c3nc(-c4ccc(F)c(C(F)(F)F)c4)cn3CCN(C)C)CC2)cc1 [Compound 88, Methyl 4-(4-amino-6-(4-(1-(2-(dimethylamino)ethyl)-4-(4-fluoro-3-(trifluoromethyl)phenyl)-1H-imidazol-2-yl)piperidin-1-yl)pyrimidin-5-yl)benzoate] | 8.1 nM | 95 nM
CN(C)CCn1cc(-c2ccc(F)c(C(F)(F)F)c2)nc1C1CCN(c2ncnc(N)c2-c2ccc(C(=O)O)cc2)CC1 [Compound 89] | 7.3 nM | 33 nM
CN(C)CCn1cc(-c2ccc(F)c(C(F)(F)F)c2)nc1C1CCN(c2ncnc(N)c2C2=CCCC2)CC1 [Compound 90] | 3.1 nM | 31 nM
CN(C)CCn1cc(-c2ccc(F)c(C(F)(F)F)c2)nc1C1CCN(c2ncnc(N)c2C2CC2)CC1 [Compound 91, 5-Cyclopropyl-6-(4-(1-(2-(dimethylamino)ethyl)-4-(4-fluoro-3-(trifluoromethyl)phenyl)-1H-imidazol-2-yl)piperidin-1-yl)pyrimidin-4-amine] | 3.2 nM | 4.8 nM
CCc1c(N)ncnc1N1CCC(c2nc(-c3ccc(F)c(C(F)(F)F)c3)cn2CCN2CC(F)C2)CC1 [Compound 92, 5-ethyl-6-(4-(4-(4-fluoro-3-(trifluoromethyl)phenyl)-1-(2-(3-fluoroazetidin-1-yl)ethyl)-1H-imidazol-2-yl)piperidin-1-yl)pyrimidin-4-amine] | 4.2 nM | 71 nM
CCc1c(N)ncnc1N1CCC(c2nc(-c3ccc(F)c(C(F)(F)F)c3)cn2CCN2CC(C)C2)CC1 [Compound 93, 5-ethyl-6-(4-(4-(4-fluoro-3-(trifluoromethyl)phenyl)-1-(2-(3-methylazetidin-1-yl)ethyl)-1H-imidazol-2-yl)piperidin-1-yl)pyrimidin-4-amine] | 3 nM | 7.7 nM
CCc1c(N)ncnc1N1CCC(c2nc(-c3ccc(F)c(C(F)(F)F)c3)cn2CCN2CC(F)(F)C2)CC1 [Compound 94, 6-(4-(1-(2-(3,3-difluoroazetidin-1-yl)ethyl)-4-(4-fluoro-3-(trifluoromethyl)phenyl)-1H-imidazol-2-yl)piperidin-1-yl)-5-ethylpyrimidin-4-amine] | 13 nM | 1600 nM
CCN(C)Cc1c(N)ncnc1N1CCC(c2nc(-c3ccc(F)c(C(F)(F)F)c3)cn2CCN(C)C)CC1 [Compound 95, 6-(4-(1-(2-(dimethylamino)ethyl)-4-(4-fluoro-3-(trifluoromethyl)phenyl)-1H-imidazol-2-yl)piperidin-1-yl)-5-((ethyl(methyl)amino)methyl)pyrimidin-4-amine] | 47 nM | 520 nM
CC(C)Oc1c(N)ncnc1N1CCC(c2nc(-c3ccc(F)c(C(F)(F)F)c3)cn2CCN2CCC2)CC1 [Compound 96, 6-(4-(1-(2-(azetidin-1-yl)ethyl)-4-(4-fluoro-3-(trifluoromethyl)phenyl)-1H-imidazol-2-yl)piperidin-1-yl)-5-isopropoxypyrimidin-4-amine] | 5.3 nM | 7.9 nM
COc1c(N)ncnc1N1CCC(c2nc(-c3ccc(F)c(C(F)(F)F)c3)cn2CCN2CCC2)CC1 [Compound 97, 6-(4-(1-(2-(azetidin-1-yl)ethyl)-4-(4-fluoro-3-(trifluoromethyl)phenyl)-1H-imidazol-2-yl)piperidin-1-yl)-5-methoxypyrimidin-4-amine] | 2.2 nM | 6.1 nM
Nc1ncnc(N2CCC(c3nc(-c4ccc(F)c(C(F)(F)F)c4)cn3CCN3CCC3)CC2)c1-c1cn[nH]c1 [Compound 98, 6-(4-(1-(2-(azetidin-1-yl)ethyl)-4-(4-fluoro-3-(trifluoromethyl)phenyl)-1H-imidazol-2-yl)piperidin-1-yl)-5-(1H-pyrazol-4-yl)pyrimidin-4-amine] | 3 nM | 6.9 nM
CCc1c(N)ncnc1N1CCC(c2nc(-c3cncc(C(F)(F)F)c3)cn2CCN2CCC2)CC1 [Compound 99, 6-(4-(1-(2-(azetidin-1-yl)ethyl)-4-(5-(trifluoromethyl)pyridin-3-yl)-1H-imidazol-2-yl)piperidin-1-yl)-5-ethylpyrimidin-4-amine] | 4.5 nM | 18 nM
CCc1c(N)ncnc1N1CCC(c2nc(-c3cccc(OC(F)(F)F)c3)cn2CCN2CCC2)CC1 [Compound 100, 6-(4-(1-(2-(azetidin-1-yl)ethyl)-4-(3-(trifluoromethoxy)phenyl)-1H-imidazol-2-yl)piperidin-1-yl)-5-ethylpyrimidin-4-amine] | 2.3 nM | 16 nM
